pIC50: −log10 of the molar value.

One test is filed under the species Rattus norvegicus. Put plainly: Inhibition of blood brain barrier choline transporter-mediated [3H]choline uptake in Fischer-344 rat brain at 250 uM by perfusion technique. The format is tissue-based.
Test [1] is described as follows: Inhibition of nAChR-mediated nicotine-induced [3H]dopamine release.

As for `Cc1cc[n+](CCCCCCCCCCCC[n+]2ccc(C)cc2)cc1`, the logKi in the test filed under Rattus norvegicus was 1.93.

On to `Cc1cc[n+](C#Cc2ccc(-c3ccc(C#C[n+]4ccc(C)c(C)c4)cc3)cc2)cc1C`, for which the logKi in the test listed under Rattus norvegicus is 1.98.

Regarding `Cc1cc[n+](CCC#Cc2ccc(C#CCC[n+]3ccc(C)cc3)cc2)cc1`, the logKi in the test filed under Rattus norvegicus stood at 0.929.

Turning to `CC[N+](CC)(CC)CCCCCCCCCCCC[n+]1cccc(C)c1`, in the test listed under Rattus norvegicus, the logKi is 1.34.

Regarding `Cc1cc[n+](CCC#Cc2ccc(C#CCC[n+]3ccc(C)c(C)c3)cc2)cc1C`, the logKi in the test listed under Rattus norvegicus was determined as 0.924.

`Cc1cc[n+](CCCc2ccc(-c3ccc(CCC[n+]4ccc(C)c(C)c4)cc3)cc2)cc1C` came in with a logKi in the test filed under Rattus norvegicus of 1.75.

With `Cc1cc(C)c[n+](CCC#Cc2ccc(C#CCC[n+]3cc(C)cc(C)c3)cc2)c1`, the logKi in the test listed under Rattus norvegicus turned out to be 0.867.

For the compound `C1#Cc2ccc[n+](c2)CCCCCC[n+]2cccc(c2)C#CCCCCCCCC1`, the logKi in the test filed under Rattus norvegicus was found to be 1.53.

In the test listed under Rattus norvegicus, `c1cc2c([n+](CCCc3ccc(-c4ccc(CCC[n+]5cccc6c5CCCC6)cc4)cc3)c1)CCCC2` came in with a logKi of 1.37.

In turn, `Cc1ccc[n+](CCCCCCCCCCCC[n+]2cccc(C)c2)c1` showed a negative logarithm of the IC50 (pIC50) in test [1] of 8.70.

With `Cc1cc[n+](CCCc2ccc(-c3ccc(CCC[n+]4ccc(C)cc4)cc3)cc2)cc1`, in the test filed under Rattus norvegicus, the logKi came out at 1.63.

The compound `CCCCC#CCCCCCC[n+]1cccc(C2CCCN2C)c1` (stereo unspecified) had a logKi in the test filed under Rattus norvegicus of 1.92.

For the compound `CN1CCCC1c1ccc[n+](CCCc2ccc(-c3ccc(CCC[n+]4cccc(C5CCCN5C)c4)cc3)cc2)c1` (stereo unspecified), the logKi in the test listed under Rattus norvegicus was determined as 1.73.

In the test listed under Rattus norvegicus, `OCCCc1ccc[n+](CCCc2ccc(-c3ccc(CCC[n+]4cccc(CCCO)c4)cc3)cc2)c1` yielded a logKi of 1.86.

`c1ccc2c(c1)ccc[n+]2CCCCCC[n+]1cccc2ccccc21`: the logKi in the test filed under Rattus norvegicus was 1.26.

`CCCCC#CCCCCCC[n+]1ccc(C)cc1` returned a logKi in the test listed under Rattus norvegicus of 2.58.

For the compound `OCCCc1ccc[n+](CCCc2ccc(CCC[n+]3cccc(CCCO)c3)cc2)c1`, the logKi in the test listed under Rattus norvegicus came to 2.09.

For the compound `C1#Cc2ccc[n+](c2)CCCCCCCCC[n+]2cccc(c2)C#CCCCCCCCC1`, the logKi in the test filed under Rattus norvegicus is 0.146.

The compound `C(#Cc1ccc(C#CCC[n+]2ccc3c(c2)CCCC3)cc1)CC[n+]1ccc2c(c1)CCCC2` registered a logKi in the test listed under Rattus norvegicus of 0.732.

In the test listed under Rattus norvegicus, `Cc1cc(C)c[n+](CCCCCCCCCCC[n+]2cc(C)cc(C)c2)c1` returned a logKi of 1.81.

On to `Cc1ccc[n+](CCC#Cc2ccc(C#CCC[n+]3cccc(C)c3)cc2)c1`, for which, in the test filed under Rattus norvegicus, the logKi came out at 0.595.

Turning to `c1cc(-c2ccc(CCC[n+]3ccc4c(c3)CCCC4)cc2)ccc1CCC[n+]1ccc2c(c1)CCCC2`, the logKi in the test listed under Rattus norvegicus was 1.2.

For `CCCCc1ccc(CCCC[n+]2ccc(C)cc2)cc1`, the logKi in the test filed under Rattus norvegicus was 2.69.

For `Cc1cccc[n+]1CCCc1ccc(-c2ccc(CCC[n+]3ccccc3C)cc2)cc1`, the logKi in the test filed under Rattus norvegicus worked out at 2.

`C1#Cc2ccc[n+](c2)CCCCCCCCCCC[n+]2cccc(c2)C#CCCCCCCCC1` showed a logKi in the test listed under Rattus norvegicus of 1.18.

Take `Cc1cc(C)c[n+](CCCCc2ccc(CCCC[n+]3cc(C)cc(C)c3)cc2)c1`: in the test listed under Rattus norvegicus, the logKi came out at 2.56.

As usually defined, the pIC50 is −log10 of the IC50, conventionally taken in molar units. Read a high pIC50 as a small IC50.

(Values after ChEMBL document CHEMBL1159105, “Predictive screening model for potential vector-mediated transport of cationic substrates at the blood-brain barrier choline transporter” (Bioorg Med Chem Lett, 2010).)
